# Experimental data from US5037812A, “Tumor cell growth-inhibiting pharmaceutical compositions containing phosphino-hydrocarbon-gold, silver or copper complexes” (priority 1986, dated 1991).
# Where “and” joins values, the source holds several entries; their conditions need not be identical. Equal values may be shown once. Read-outs that look alike come from different tables or passages of the source.
# Columns and labels:
# [1] = Struck et al., J. Med. Chem., 9, 414-416 (1966); cited from earlier work
# [2] = system: M5076 reticulum cell sarcoma; conditions: positive control, general statement; cited from earlier work
# [3] = system: mammary adenocarcinoma 16/c; assay: sc mammary adenocarcinoma 16/c tumor model; type: in vivo, mice (C3H); conditions: for Inhibition: Day 21
# Description: In this experiment, the tumor was implanted sc in C3H mice, and the drug was administered ip or iv on an intermittent treatment schedule, i.e., once on days 1, 5, 9, 13 and 17. Tumors were measured 3 weeks after implantation, and activity was assessed by degree of tumor growth inhibition.
# *N.P. = Proportion of mice without palpable tumors on Day 21
# [4] = system: mammary adenocarcinoma 16/c; conditions: positive control, general statement; cited from earlier work
# [5] = solubility in 9:1 water:ethanol (HPLC of filtrate)
# [6] = system: M5076 reticulum cell sarcoma; assay: ip M5076 reticulum cell sarcoma in mice; type: in vivo, mice (B6D2F female)
# Description: Another tumor model used for evaluation of tumor growth inhibiting drugs is intraperitoneally implanted M5076 reticulum cell sarcoma in mice. […] Drugs are administered ip. Daily treatment is begun 24 hours after implantation and is continued for ten days. The treatment regimen for M5076 is more prolonged than for P388 because of the slower growth rate and longer control survival time of the M5076 tumor. Compounds of Formula (I) and Formula (II) were evaluated in this assay. An evaluation of several compounds of Formula (I) in the M5076 reticulum cell sarcoma assay at their maximally tolerated dose (MTD) is set forth in Table III. An ILS of ≥25% indicates activity in this tumor model.
# ^(b) maximally tolerated dose for B6D2F female mice on an ip qDX10
# ^(c) maximum increase in lifespan produced in mice bearing ip M5076
# [7] = system: HT-29 human colon carcinoma cells; assay: HT-29 human colon carcinoma cell killing in vitro; type: cell-based; conditions: 2-hour exposure
# [8] = system: B16 melanoma; assay: in vivo ip B16 melanoma assay; parameters: species or system mice (B6D2F1); conditions: ip qDX10; for MTD (maximally tolerated dose): B6D2F1 mice; for ILS (maximum increase in lifespan): mice bearing ip B16 melanoma, slash-separated figures are separate experiments
# Description: Daily treatment is begun 24 hours after tumor implantation and is continued daily for ten (10) days. The route of drug administration is ip. The mice are monitored daily for survival for sixty (60) days. Antitumor activity is assessed by prolongation of median survival time. An ILS of ≥25% indicates activity in this tumor model.
# ^(b) maximally tolerated dose for B6D2F1 mice on an ip qDX10
# ^(c) maximum increase in lifespan produced in mice bearing ip B16
# [9] = system: M5076 reticulum cell sarcoma; conditions: 2 mg/kg ip, qD × 10
# Description: B6D2F female mice are inoculated sc in the flank with 0.5 ml of a 10% (w:v) brei of M5076 prepared from pooled sc tumors excised at about Day 21 from C57Bl/6 donors. Treatment is initiated one day after tumor implantation, and is continued daily for 10 days. Tumors are measured 21 days after tumor implantation activity is determined by the degree of tumor growth inhibition.
# [10] = system: B16 melanoma cells; assay: B16 melanoma cell assay, clonogenic capacity in vitro after two-hour exposure; type: cell-based; conditions: 2-hour exposure; read-out: IC50: concentration which inhibits cloning efficiency of B16 melanoma cells by 50%
# Description: The B16 melanoma cell assay measures the ability of a compound to inhibit the clonogenic capacity of cells in vitro following a two-hour exposure to the compound.
# B16 melanoma (highly metastatic subline, F10) are used and maintained as monolayer cultures in Minimal Essential Media (Grand Island Biological Col., Grand Island, N.Y.) supplemented with 10% calf serum, 1% antibiotics in a 5% CO2 humidified incubator at 37° C. Asynchronous populations of cells are harvested and replated to 5000 cells/plate in sterile 60 mm×15 mm petri plates. Plates are incubated overnight to allow attachment of the cells to the plate. Cells are treated with a Formula (I) or Formula (II) compound/under sterile conditions, allowed to react for 2 hours followed by aspiration of medium. Plates are washed one time with 5 ml of phosphate buffered saline (PBS), followed by the addition of 5 ml of fresh medium. Plates are incubated for 5 days at 37° C. in a CO2 incubator. Viability is measured by the ability of a cell to form a colony of greater than 50 cells. Colonies are fixed with 0.5% crystal violet in 95% ethanol. Plates are dried and counted with a Biotran III Automatic Count Totalizer (New Brunswick Scientific Co., Edison, N.J.). Mean and standard deviation of triplicate samples are determined for each drug concentration. The data are analyzed plotting the log of the survival fraction (number of colonies in drug treated plates/number of colonies in controls) versus the drug concentration.
# ^a Concentration which inhibits cloning efficiency of B16 melanoma
# cells by 50% on a 2hour exposure
# [11] = system: P388 leukemia; assay: ip P388 leukemia mouse model; type: in vivo, mice (B6D2F1); conditions: for MTD (maximally tolerated dose): B6D2F female mice, ip qDX5; for ILS max (maximum increase in lifespan): mice bearing ip P388 leukemia, ip days 1-5 at MTD, slash-separated figures are separate experiments
# Description: This tumor system is widely accepted as an antitumor agent screening tool because it is sensitive to virtually all of the clinically active antineoplastic agents; quantitative and reproducible; amenable for large-scale screening; and predictive for activity in other animal tumor models.
# 10^6 P388 leukemia cells are inoculated ip in B6D2F1 mice. Twenty-four hours later, if the tumor inoculum proves to be free of bacterial contamination (as determined by 24 hours incubation in thioglycollate broth), animals are randomized into groups of 6 and housed in shoebox cages. […] An equal volume of saline or water is added; if the drug comes out of solution an equal volume of Cremophor (polyethoxylated castor oil) is added and then saline or water, as to a concentration such that the desired dose is delivered in 0.5 ml. The final concentration of DMA, ethanol or Cremophor is 10 percent. Dilutions for lower doses are made with saline or water so that there is a decreasing proportion of organic solvents in the vehicle with decreasing dosage. […] Formulations are prepared immediately prior to injection. The Formula (I) and Formula (II) compounds are administered ip on Days 1 through 5 (i.e., treatment is initiated 24 hrs after tumor inoculation). Each experiment includes three groups of 6 animals as untreated controls and animals treated with a positive control, cisplatin, at two dose levels. Animals are weighed as a group on Days 1, 5 and 9 and average weight change (Δwt.) is used as a reflection of toxicity. Each experiment also includes an inoculum titration--groups of 8 mice inoculated ip with 10^5 to 10^0 P388 leukemia cells. The titration is used as a quality control check for the performance of the tumor model. Animals are monitored daily for mortality and experiments are terminated after 45 days. The endpoint is median survival time (MST) and increase in lifespan (ILS) which is the percentage of increase in MST relative to untreated controls.
# [12] = 15 h
# [13] = Experiment 1, ip, q4D × 5, 6 mg/kg
# [14] = Experiment 2, ip, q4D × 5, 6 mg/kg
# [15] = Experiment 2, iv, q4D × 5, 6 mg/kg
# [16] = Experiment 3, ip, q4D × 5, 6 mg/kg
# [17] = Experiment 1, ip, q4D × 5, 8 mg/kg
# [18] = Experiment 2, iv, q4D × 5, 12 mg/kg
# [19] = Experiment 3, ip, q4D × 5, 8 mg/kg
smiles,measurement,setting,value
"c1ccc(P(CCP(c2ccccc2)c2ccccc2)c2ccccc2)cc1 [1,2-bis(diphenyl-phosphino)ethane]",cytotoxic activity (in words),[1],cytotoxic activity
"N.N.[Cl][Pt][Cl] [Cisplatin, reference compound]",tumor growth inhibition (in words),[2],complete tumor growth inhibition
same,Mean Tumor Volume on Day 21,[3]; [13],30 ± 64 mm^3
same,N.P. (proportion of mice without palpable tumors on Day 21),[3]; [13],6/8
same,Inhibition,[3]; [13],97%
same,Mean Tumor Volume on Day 21,[3]; [14],0 mm^3
same,N.P. (proportion of mice without palpable tumors on Day 21),[3]; [14],8/8
same,Inhibition,[3]; [14],100%
same,Mean Tumor Volume on Day 21,[3]; [15],21 ± 61 mm^3
same,N.P. (proportion of mice without palpable tumors on Day 21),[3]; [15],7/8
same,Inhibition,[3]; [15],98%
same,Mean Tumor Volume on Day 21,[3]; [16],586 ± 266 mm^3
same,N.P. (proportion of mice without palpable tumors on Day 21),[3]; [16],0/8
same,Inhibition,[3]; [16],37%
same,inhibition of the growth of mammary adenocarcinoma 16/c (in words),[4],complete inhibition
"[Au+].[Cl-].c1ccc(P(CCP(c2ccccc2)c2ccccc2)c2ccccc2)cc1.c1ccc(P(CCP(c2ccccc2)c2ccccc2)c2ccccc2)cc1 [Compound No. 1, Bis[1,2-Bis(diphenylphosphino)ethane]Gold(I) Chloride]",solubility in 9:1 water:ethanol (in words),[5]; 9:1 water:ethanol,true solution
same,Solubility in 9:1 Water:Ethanol,"[5]; stirred 15 hours, 0.45 μm PTFE filter, HPLC",170 µg/mL
same,solubility in water (in words),[5]; water,forms a suspension in water
same,MTD (maximally tolerated dose),"[6]; B6D2F female mice, ip qDX10",2 mg/kg
same,ILS max (maximum increase in lifespan),"[6]; mice bearing ip M5076, ip qDX10 at MTD, slash-separated figures are separate experiments",56% and 83% and 52% and 47% and 49%
same,effectively killed HT-29 cells following exposure to concentrations,[7],< 10 µM
same,MTD (maximally tolerated dose),[8],2 mg/kg
same,ILS (maximum increase in lifespan),[8],50% and 43% and 33% and 28% and 37%
same,% Inhibition of tumor growth (Day 21),[9],91% and 48%
same,N.P. (proportion of mice without palpable tumor on Day 21),[9],2/7 and 1/7
same,IC50,[10],4.5 µM
same,MTD (maximally tolerated dose),[11],2 mg/kg
same,ILS max (maximum increase in lifespan),[11],83 ± 24%
same,Mean Tumor Volume on Day 21,[3]; [17],96 ± 143 mm^3
same,N.P. (proportion of mice without palpable tumors on Day 21),[3]; [17],4/7
same,Inhibition,[3]; [17],92%
same,Mean Tumor Volume on Day 21,[3]; [14],430 ± 291 mm^3
same,N.P. (proportion of mice without palpable tumors on Day 21),[3]; [14],0/8
same,Inhibition,[3]; [14],61%
same,Mean Tumor Volume on Day 21,[3]; [18],181 ± 163 mm^3
same,N.P. (proportion of mice without palpable tumors on Day 21),[3]; [18],2/8
same,Inhibition,[3]; [18],84%
same,Mean Tumor Volume on Day 21,[3]; [19],0 mm^3
same,N.P. (proportion of mice without palpable tumors on Day 21),[3]; [19],5/5
same,Inhibition,[3]; [19],100%
"O=C([O-])C(O)CO.[Au+].c1ccc(P(CCP(c2ccccc2)c2ccccc2)c2ccccc2)cc1.c1ccc(P(CCP(c2ccccc2)c2ccccc2)c2ccccc2)cc1 [compound 25, Bis[1,2-bis(diphenylphosphino)ethane]gold(I) DL-2,3-dihydroxypropanoate]",MTD (maximally tolerated dose),[8],0.75 mg/kg
same,ILS (maximum increase in lifespan),[8],28%
same,Solubility in 9:1 Water:Ethanol,[12],2200 µg/mL
same,MTD (maximally tolerated dose),[11],2 mg/kg
same,ILS max (maximum increase in lifespan),[11],55% and 65%
